Test system: healthy subjects
Test: Phase I clinical trial, single-dose groups: uric acid index before and after treatment
Type: in vivo, human
Conditions: for Uric acid (UA) Mean / Uric acid (UA) Median / Uric acid (UA) Minimum value / Uric acid (UA) maximum value / Uric acid (UA) Changes over baseline at last visit (on day 6), Mean / Uric acid (UA) Changes over baseline at last visit (on day 6), Median / Uric acid (UA) Changes over baseline at last visit (on day 6), Minimum value / Uric acid (UA) Changes over baseline at last visit (on day 6), maximum value / Uric acid (UA) Changes over baseline on day 2, Mean / Uric acid (UA) Changes over baseline on day 2, Median / Uric acid (UA) Changes over baseline on day 2, Minimum value / Uric acid (UA) Changes over baseline on day 2, maximum value / Uric acid (UA) Changes over baseline on day 4, Mean / Uric acid (UA) Changes over baseline on day 4, Median / Uric acid (UA) Changes over baseline on day 4, Minimum value / Uric acid (UA) Changes over baseline on day 4, maximum value: N = 9
Procedure: The changes of uric acid levels in subjects in single-dose and multi-dose groups of Compound I are shown in FIG. 1A (single dose of 6 mg and single dose of 10 mg), FIG. 1B (single dose of 20 mg and single dose of 30 mg), and FIG. 2 (multi-dose of 10 mg and multi-dose of 20 mg). The corresponding results are also shown in Tables 1.1, 1.2, 1.3, and 2.1, and tables 2.2, 2.3, and 2.4.

[1] = Last visit (day 6), single dose 6 mg
[2] = Last visit (day 6), single dose 10 mg
[3] = Last visit (day 6), single dose 20 mg
[4] = Last visit (day 6), single dose 30 mg

## COc1cccc2c1ncc1c(=O)n(C3CCC(C(=O)O)CC3)c(=O)n(-c3cccc(Cl)c3)c12 (stereo not shown) [Compound I, 4-[1-(3-chlorophenyl)-7-methoxy-2,4-dioxo-pyrimido[5,4-c]quinolin-3-yl]cyclohexanecarboxylic acid]
Baseline, single dose 6 mg
  Uric acid (UA) Mean: 315.9 µmol/L
  Uric acid (UA) Median: 319.0 µmol/L
  Uric acid (UA) Minimum value: 185 µmol/L
  Uric acid (UA) maximum value: 429 µmol/L
Baseline, single dose 10 mg
  Uric acid (UA) Mean: 335.2 µmol/L
  Uric acid (UA) Median: 330.0 µmol/L
  Uric acid (UA) Minimum value: 224 µmol/L
  Uric acid (UA) maximum value: 446 µmol/L
Baseline, single dose 20 mg
  Uric acid (UA) Mean: 326.0 µmol/L
  Uric acid (UA) Median: 320.0 µmol/L
  Uric acid (UA) Minimum value: 256 µmol/L
  Uric acid (UA) maximum value: 436 µmol/L
Baseline, single dose 30 mg
  Uric acid (UA) Mean: 300.9 µmol/L
  Uric acid (UA) Median: 277.0 µmol/L
  Uric acid (UA) Minimum value: 209 µmol/L
  Uric acid (UA) maximum value: 401 µmol/L
Day 2, single dose 6 mg
  Uric acid (UA) Mean: 272.9 µmol/L
  Uric acid (UA) Median: 272.0 µmol/L
  Uric acid (UA) Minimum value: 160 µmol/L
  Uric acid (UA) maximum value: 347 µmol/L
Day 2, single dose 10 mg
  Uric acid (UA) Mean: 266.1 µmol/L
  Uric acid (UA) Median: 254.0 µmol/L
  Uric acid (UA) Minimum value: 161 µmol/L
  Uric acid (UA) maximum value: 447 µmol/L
Day 2, single dose 20 mg
  Uric acid (UA) Mean: 194.9 µmol/L
  Uric acid (UA) Median: 209.0 µmol/L
  Uric acid (UA) Minimum value: 105 µmol/L
  Uric acid (UA) maximum value: 251 µmol/L
Day 2, single dose 30 mg
  Uric acid (UA) Mean: 135.8 µmol/L
  Uric acid (UA) Median: 144.0 µmol/L
  Uric acid (UA) Minimum value: 60 µmol/L
  Uric acid (UA) maximum value: 178 µmol/L
Day 4, single dose 6 mg
  Uric acid (UA) Mean: 285.9 µmol/L
  Uric acid (UA) Median: 300.0 µmol/L
  Uric acid (UA) Minimum value: 193 µmol/L
  Uric acid (UA) maximum value: 378 µmol/L
Day 4, single dose 10 mg
  Uric acid (UA) Mean: 302.8 µmol/L
  Uric acid (UA) Median: 304.0 µmol/L
  Uric acid (UA) Minimum value: 199 µmol/L
  Uric acid (UA) maximum value: 462 µmol/L
Day 4, single dose 20 mg
  Uric acid (UA) Mean: 277.7 µmol/L
  Uric acid (UA) Median: 279.0 µmol/L
  Uric acid (UA) Minimum value: 179 µmol/L
  Uric acid (UA) maximum value: 340 µmol/L
Day 4, single dose 30 mg
  Uric acid (UA) Mean: 217.9 µmol/L
  Uric acid (UA) Median: 232.0 µmol/L
  Uric acid (UA) Minimum value: 140 µmol/L
  Uric acid (UA) maximum value: 266 µmol/L
[1]
  Uric acid (UA) Mean: 327.2 µmol/L
  Uric acid (UA) Median: 341.0 µmol/L
  Uric acid (UA) Minimum value: 227 µmol/L
  Uric acid (UA) maximum value: 431 µmol/L
[2]
  Uric acid (UA) Mean: 357.3 µmol/L
  Uric acid (UA) Median: 367.0 µmol/L
  Uric acid (UA) Minimum value: 243 µmol/L
  Uric acid (UA) maximum value: 508 µmol/L
[3]
  Uric acid (UA) Mean: 341.1 µmol/L
  Uric acid (UA) Median: 358.0 µmol/L
  Uric acid (UA) Minimum value: 237 µmol/L
  Uric acid (UA) maximum value: 414 µmol/L
[4]
  Uric acid (UA) Mean: 287.4 µmol/L
  Uric acid (UA) Median: 283.0 µmol/L
  Uric acid (UA) Minimum value: 207 µmol/L
  Uric acid (UA) maximum value: 364 µmol/L
Single dose 6 mg
  Uric acid (UA) Changes over baseline at last visit (on day 6), Mean: 11.3 µmol/L
  Uric acid (UA) Changes over baseline at last visit (on day 6), Median: 22.0 µmol/L
  Uric acid (UA) Changes over baseline at last visit (on day 6), Minimum value: -48 µmol/L
  Uric acid (UA) Changes over baseline at last visit (on day 6), maximum value: 52 µmol/L
  Uric acid (UA) Changes over baseline on day 2, Mean: -43.0 µmol/L
  Uric acid (UA) Changes over baseline on day 2, Median: -32.0 µmol/L
  Uric acid (UA) Changes over baseline on day 2, Minimum value: -112 µmol/L
  Uric acid (UA) Changes over baseline on day 2, maximum value: 42 µmol/L
  Uric acid (UA) Changes over baseline on day 4, Mean: -30.0 µmol/L
  Uric acid (UA) Changes over baseline on day 4, Median: -18.0 µmol/L
  Uric acid (UA) Changes over baseline on day 4, Minimum value: -86 µmol/L
  Uric acid (UA) Changes over baseline on day 4, maximum value: 31 µmol/L
Single dose 10 mg
  Uric acid (UA) Changes over baseline at last visit (on day 6), Mean: 22.1 µmol/L
  Uric acid (UA) Changes over baseline at last visit (on day 6), Median: 19.0 µmol/L
  Uric acid (UA) Changes over baseline at last visit (on day 6), Minimum value: -27 µmol/L
  Uric acid (UA) Changes over baseline at last visit (on day 6), maximum value: 88 µmol/L
  Uric acid (UA) Changes over baseline on day 2, Mean: -69.1 µmol/L
  Uric acid (UA) Changes over baseline on day 2, Median: -70.0 µmol/L
  Uric acid (UA) Changes over baseline on day 2, Minimum value: -133 µmol/L
  Uric acid (UA) Changes over baseline on day 2, maximum value: 1 µmol/L
  Uric acid (UA) Changes over baseline on day 4, Mean: -32.4 µmol/L
  Uric acid (UA) Changes over baseline on day 4, Median: -29.0 µmol/L
  Uric acid (UA) Changes over baseline on day 4, Minimum value: -92 µmol/L
  Uric acid (UA) Changes over baseline on day 4, maximum value: 23 µmol/L
Single dose 20 mg
  Uric acid (UA) Changes over baseline at last visit (on day 6), Mean: 15.1 µmol/L
  Uric acid (UA) Changes over baseline at last visit (on day 6), Median: 9.0 µmol/L
  Uric acid (UA) Changes over baseline at last visit (on day 6), Minimum value: -34 µmol/L
  Uric acid (UA) Changes over baseline at last visit (on day 6), maximum value: 122 µmol/L
  Uric acid (UA) Changes over baseline on day 2, Mean: -131.1 µmol/L
  Uric acid (UA) Changes over baseline on day 2, Median: -130.0 µmol/L
  Uric acid (UA) Changes over baseline on day 2, Minimum value: -211 µmol/L
  Uric acid (UA) Changes over baseline on day 2, maximum value: -42 µmol/L
  Uric acid (UA) Changes over baseline on day 4, Mean: -48.3 µmol/L
  Uric acid (UA) Changes over baseline on day 4, Median: -62.0 µmol/L
  Uric acid (UA) Changes over baseline on day 4, Minimum value: -106 µmol/L
  Uric acid (UA) Changes over baseline on day 4, maximum value: 50 µmol/L
Single dose 30 mg
  Uric acid (UA) Changes over baseline at last visit (on day 6), Mean: -13.4 µmol/L
  Uric acid (UA) Changes over baseline at last visit (on day 6), Median: -20.0 µmol/L
  Uric acid (UA) Changes over baseline at last visit (on day 6), Minimum value: -75 µmol/L
  Uric acid (UA) Changes over baseline at last visit (on day 6), maximum value: 58 µmol/L
  Uric acid (UA) Changes over baseline on day 2, Mean: -165.1 µmol/L
  Uric acid (UA) Changes over baseline on day 2, Median: -152.0 µmol/L
  Uric acid (UA) Changes over baseline on day 2, Minimum value: -261 µmol/L
  Uric acid (UA) Changes over baseline on day 2, maximum value: -79 µmol/L
  Uric acid (UA) Changes over baseline on day 4, Mean: -83.0 µmol/L
  Uric acid (UA) Changes over baseline on day 4, Median: -69.0 µmol/L
  Uric acid (UA) Changes over baseline on day 4, Minimum value: -162 µmol/L
  Uric acid (UA) Changes over baseline on day 4, maximum value: -3 µmol/L
single-dose and multi-dose groups, p<0.05
  uric acid level in the subjects, overall clinical trial result: reduces the uric acid level in the subjects significantly
single-dose groups
  uric acid level on the following days (days 4 and 6): gradually recovered
single-dose groups, certain dose dependence
  uric acid level the next day after administration: decreases obviously
